In patent publication US20240270751A1, “Pyrazolopyridinone Compounds” (BeiGene Ltd., priority 2021, published 2024):
pIC50: −log10 of the molar value.

Assays:
DGKζ = DGKζ (Homo sapiens (Human), UniProt Q13574); assay: Biochemical DGK IC50 assay, DGKζ ADP-Glo assay; settings: 0.5 nM enzyme, 140 μM ATP, 80 μM DAG; read-out: DGKζ ADP-Glo assay IC50
Procedure, shortened: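 Full-length human DGKζ, His-TEV tagged and purified from baculovirus-infected Sf9 cells, assayed by ADP-Glo with DAG/PS lipid micelle substrate prepared in 25 mM HEPES pH 7.0 with octyl glucoside. Final compound concentrations spanned 1.55–10000 nM or 23.3–150000 nM.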

DGKα = DGKα (Homo sapiens (Human), UniProt P23743); assay: Biochemical DGK IC50 assay, DGKα ADP-Glo assay; settings: 7.5 nM enzyme, 140 μM ATP, 80 μM DAG
Sequence of DGKα (P23743 whole entry): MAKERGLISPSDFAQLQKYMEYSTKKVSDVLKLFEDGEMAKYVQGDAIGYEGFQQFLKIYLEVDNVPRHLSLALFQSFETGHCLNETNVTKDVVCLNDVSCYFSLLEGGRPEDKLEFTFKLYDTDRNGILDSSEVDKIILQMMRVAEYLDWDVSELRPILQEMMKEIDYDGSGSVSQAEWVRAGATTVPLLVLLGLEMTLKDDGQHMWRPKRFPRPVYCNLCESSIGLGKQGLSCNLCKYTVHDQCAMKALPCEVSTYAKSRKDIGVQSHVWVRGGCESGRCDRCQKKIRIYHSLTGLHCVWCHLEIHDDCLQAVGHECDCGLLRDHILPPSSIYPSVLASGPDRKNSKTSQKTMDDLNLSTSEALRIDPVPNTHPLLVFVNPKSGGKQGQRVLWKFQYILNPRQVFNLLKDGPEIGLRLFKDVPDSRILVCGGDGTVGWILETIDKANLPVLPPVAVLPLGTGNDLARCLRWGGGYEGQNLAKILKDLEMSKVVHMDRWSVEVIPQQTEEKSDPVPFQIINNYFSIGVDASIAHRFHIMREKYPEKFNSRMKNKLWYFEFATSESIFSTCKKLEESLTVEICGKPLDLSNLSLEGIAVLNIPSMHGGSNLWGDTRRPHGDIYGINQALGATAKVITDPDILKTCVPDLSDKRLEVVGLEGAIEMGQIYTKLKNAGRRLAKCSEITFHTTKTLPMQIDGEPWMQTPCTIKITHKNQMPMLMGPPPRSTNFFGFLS
Procedure, shortened: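 ADP-Glo read-out with full-length DGKα on DAG/PS lipid micelle substrate in 25 mM HEPES pH 7.0, 0.5 mM EDTA, 160 mM octyl β-D-glucopyranoside. Compound final concentrations spanned 1.55˜10000 nM or 23.3˜150000 nM.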

Sequence of DGKζ (Q13574 other isoform, or with tags, fused parts or gaps): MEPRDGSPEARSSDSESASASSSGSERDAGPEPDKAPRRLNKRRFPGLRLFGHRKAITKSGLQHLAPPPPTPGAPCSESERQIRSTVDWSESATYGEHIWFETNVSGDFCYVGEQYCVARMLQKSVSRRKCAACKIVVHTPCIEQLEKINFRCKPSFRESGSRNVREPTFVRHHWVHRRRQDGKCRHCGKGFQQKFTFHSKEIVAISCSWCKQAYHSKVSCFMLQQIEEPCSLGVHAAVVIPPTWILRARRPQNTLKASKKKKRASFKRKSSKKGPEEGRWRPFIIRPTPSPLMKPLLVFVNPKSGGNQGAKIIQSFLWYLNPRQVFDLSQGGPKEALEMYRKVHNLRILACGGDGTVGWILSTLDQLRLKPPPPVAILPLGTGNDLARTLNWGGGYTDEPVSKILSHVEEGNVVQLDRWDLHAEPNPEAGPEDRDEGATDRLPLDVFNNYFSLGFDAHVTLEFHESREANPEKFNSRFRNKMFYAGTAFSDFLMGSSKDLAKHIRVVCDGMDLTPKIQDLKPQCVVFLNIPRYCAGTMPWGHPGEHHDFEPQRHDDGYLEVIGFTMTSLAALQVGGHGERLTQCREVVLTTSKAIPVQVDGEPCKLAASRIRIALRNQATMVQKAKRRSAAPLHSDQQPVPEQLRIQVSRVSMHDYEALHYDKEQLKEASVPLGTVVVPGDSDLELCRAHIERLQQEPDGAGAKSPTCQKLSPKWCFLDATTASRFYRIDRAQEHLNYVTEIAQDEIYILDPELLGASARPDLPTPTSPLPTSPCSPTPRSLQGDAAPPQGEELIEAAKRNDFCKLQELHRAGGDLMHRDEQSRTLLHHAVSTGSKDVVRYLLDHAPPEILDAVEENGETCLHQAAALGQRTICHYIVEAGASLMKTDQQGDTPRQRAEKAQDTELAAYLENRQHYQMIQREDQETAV

pIC50 (DGKζ) | pIC50 (DGKα) | SMILES
7.05 | 4.18 | C=CCn1cc2c(n1)c(N1C[C@@H](C)N(C(C)c3ccc4nccnc4c3)C[C@@H]1C)cc(=O)n2C (single isomer, unassigned) [Compound A299, 2-allyl-7-((2S,5R)-2,5-dimethyl-4-((S)-1-(quinoxalin-6-yl)ethyl)piperazin-1-yl)-4-methyl-2,4-dihydro-5H-pyrazolo[4,3-b]pyridin-5-one, or 2-allyl-7-((2S,5R)-2,5-dimethyl-4-((R)-1-(quinoxalin-6-yl)ethyl)piperazin-1-yl)-4-methyl-2,4-dihydro-5H-pyrazolo[4,3-b]pyridin-5-one]
< 5.00 | < 5.00 | Cc1cnc2ccc([C@@H](C)N3C[C@H](C)N(c4cc(=O)n(C)c5cn(CC#N)nc45)C[C@H]3C)cc2n1 [Compound A269c, 2-(7-((2S,5R)-2,5-dimethyl-4-((R)-1-(3-methylquinoxalin-6-yl)ethyl)piperazin-1-yl)-4-methyl-5-oxo-4,5-dihydro-2H-pyrazolo[4,3-b]pyridin-2-yl)acetonitrile]
5.27 | < 5.00 | CC[C@@H]1CN(c2c(C#N)c(=O)[nH]c3cn(CC#N)nc23)[C@@H](C)CN1C(C)c1ccc2nccnc2c1 (single isomer, unassigned) [Compound A200b]
6.62 | 4.18 | CC(c1ccc2ncc(C(C)(F)F)nc2c1)N1C[C@H](C)N(c2cc(=O)n(C)c3cn(CC#N)nc23)C[C@H]1C (stereo partly drawn) [Compound A312, 2-(7-((2S,5R)-4-(1-(3-(1,1-difluoroethyl)quinoxalin-6-yl)ethyl)-2,5-dimethylpiperazin-1-yl)-4-methyl-5-oxo-4,5-dihydro-2H-pyrazolo[4,3-b]pyridin-2-yl)acetonitrile]
7.60 | 6.89 | CC[C@H]1CN(C(C)c2ccc(C(F)(F)F)cc2F)[C@H](CC)CN1c1cc(=O)n(C)c2cn(CC#N)nc12 (single isomer, unassigned) [Compound A69a]
5.43 | 6.75 | CC[C@H]1CN(C(C)c2ccc(C)cc2)[C@H](CC)CN1c1cc(=O)n(C)c2cn(CC#N)nc12 (single isomer, unassigned) [Compound A127b]
6.81 | 5.20 | CC[C@@H]1CN(c2c(F)c(=O)[nH]c3cn(CC#N)nc23)[C@@H](C)CN1C(C)c1ccc2nccnc2c1 (single isomer, unassigned) [Compound A194a]
< 5.00 | < 5.00 | CC[C@H]1CN(C(C)c2cn(CC)c(C)n2)[C@H](CC)CN1c1cc(=O)n(C)c2cn(CC#N)nc12 (stereo partly shown) [Compound A208]
6.01 | 6.51 | CC#CCn1cc2c(n1)c(N1C[C@@H](CC)N(C(C)c3ccc(C(F)(F)F)cc3F)C[C@@H]1CC)cc(=O)n2C (single isomer, unassigned) [Compound A334a]
5.93 | 5.28 | CC[C@H]1CN(C(C)c2ccc(F)cc2OCCOC)[C@H](CC)CN1c1cc(=O)n(C)c2cn(CC#N)nc12 (stereo partly shown) [Compound A85]
5.31 | 4.12 | CC[C@H]1CN(C(C)c2ncc(OC(C)C)cc2F)[C@H](CC)CN1c1cc(=O)n(C)c2cn(CC#N)nc12 (stereo partly shown) [Compound A387]
6.78 | 4.62 | CC[C@@H]1CN(c2cc(=O)n(C)c3cn(CC#N)nc23)[C@@H](CO)CN1C(C)c1ccc2nccnc2c1 (stereo partly drawn) [Compound A229, 2-(7-((2R,5R)-5-ethyl-2-(hydroxymethyl)-4-(1-(quinoxalin-6-yl)ethyl)piperazin-1-yl)-4-methyl-5-oxo-4,5-dihydro-2H-pyrazolo[4,3-b]pyridin-2-yl)acetonitrile]
7.29 | 6.21 | CC[C@@H]1CN(c2cc(=O)n(C)c3cn(CC#N)nc23)[C@@H](CC)CN1C(=O)c1cnc2ccccc2n1 [Compound A374]
6.89 | 4.40 | CC[C@H]1CN(C(C)c2ccc(F)cc2OC)[C@H](CC)CN1c1cc(=O)n(C)c2cn(CC#N)nc12 (single isomer, unassigned) [Compound A71b]
7.00 | 5.76 | CC[C@H]1CN(C(C)c2ccc(C)c(C)c2)[C@H](CC)CN1c1cc(=O)n(C)c2cn(CC#N)nc12 (stereo partly shown) [Compound A384]
7.15 | 5.09 | CC[C@@H]1CN(c2cc(=O)[nH]c3cn(CC#N)nc23)[C@@H](C)CN1C(C)c1ccc2nccnc2c1 (single isomer, unassigned) [Compound A177a]
6.19 | 7.42 | CC[C@@H]1CN(c2cc(=O)n(C)c3cn(CC#N)nc23)[C@@H](CC)CN1Cc1ccc(F)cc1 [Compound A70]

pIC50 (DGKζ) | pIC50 (DGKα) | SMILES
5.24 | < 5.00 | CC[C@H]1CN(C(C)c2nc3ccccc3n2C(C)C)[C@H](CC)CN1c1cc(=O)n(C)c2cn(CC#N)nc12 (stereo partly shown) [Compound A193]
8.05 | 7.66 | CC[C@H]1CN(C(C)c2cnc3ccccc3n2)[C@H](CC)CN1c1cc(=O)n(C)c2cn(CC#N)nc12 (stereo partly shown) [Compound A55]
< 5.00 | < 5.00 | C[C@H](c1ccc2nccnc2c1)N1CCN(c2cc(=O)n(C)c3cn(CC#N)nc23)CC1C(N)=O (single isomer, unassigned) [Compound A198b]
8.11 | 5.92 | CC[C@H]1CN(C(c2ccc(F)cc2)c2ccc(F)cc2OC)[C@H](CC)CN1c1cc(=O)n(C)c2cn(CC#N)nc12 (stereo partly shown) [Compound A53]
6.26 | 8.29 | CC[C@H]1CN(C(C)c2ccc(OC(F)(F)F)cn2)[C@H](CC)CN1c1cc(=O)n(C)c2cn(CC#N)nc12 (stereo partly shown) [Compound A361]
6.80 | 4.94 | Cc1nc2cc(C(C)N3C[C@H](C)N(c4cc(=O)n(C)c5cn(CC#N)nc45)C[C@H]3C)ccc2s1 (stereo partly shown) [Compound A320]
5.57 | 6.09 | CC[C@H]1CN(C(C)c2ccc(C(F)(F)F)cc2)[C@H](CC)CN1c1cc(=O)n(C)c2cn(CC#N)nc12 (single isomer, unassigned) [Compound A103b]
5.62 | < 5.00 | CC[C@H]1CN(C(C)c2ccc3c(n2)OCCN3C)[C@H](CC)CN1c1cc(=O)n(C)c2cn(CC#N)nc12 (stereo partly drawn) [Compound A166, 2-(7-((2S,5R)-2,5-diethyl-4-(1-(1-methyl-2,3-dihydro-1H-pyrido[2,3-b][1,4]oxazin-6-yl)ethyl)piperazin-1-yl)-4-methyl-5-oxo-4,5-dihydro-2H-pyrazolo[4,3-b]pyridin-2-yl)acetonitrile]
4.41 | < 3.82 | CC(c1ccc2nccnc2c1)N1C[C@H](C)N(c2cc(=O)n(C)c3cn(C(CC#N)C4CCCC4)nc23)C[C@H]1C (stereo partly drawn) [Compound A20, 3-cyclopentyl-3-(7-((2S,5R)-2,5-dimethyl-4-(1-(quinoxalin-6-yl)ethyl)piperazin-1-yl)-4-methyl-5-oxo-4,5-dihydro-2H-pyrazolo[4,3-b]pyridin-2-yl)propanenitrile]
< 3.82 | < 3.82 | CC(c1ccc2nccnc2c1)N1C[C@H](C)N(c2cc(=O)n(C)c3cn(CCN(C)C)nc23)C[C@H]1C (stereo partly shown) [Compound A11]
5.61 | < 5.00 | CC[C@H]1CN(C(C)c2ccc(C3CC3)cc2OC)[C@H](CC)CN1c1cc(=O)n(C)c2cn(CC#N)nc12 (single isomer, unassigned) [Compound A199a]
6.88 | < 3.82 | C=CCn1cc2c(n1)c(N1C[C@@H](C)N([C@@H](C)c3ccc4ncc(C)nc4c3)C[C@@H]1C)cc(=O)n2C [Compound A301, 2-allyl-7-((2S,5R)-2,5-dimethyl-4-((S)-1-(3-methylquinoxalin-6-yl)ethyl)piperazin-1-yl)-4-methyl-2,4-dihydro-5H-pyrazolo[4,3-b]pyridin-5-one]
5.68 | < 5.00 | CC[C@@H]1CN(c2nc(=O)[nH]c3cn(CC#N)nc23)[C@@H](C)CN1C(C)c1ccc2nccnc2c1 (single isomer, unassigned) [Compound A183b]
6.20 | 6.20 | CC[C@H]1CN(C(C)c2ccc(C(F)(F)F)cc2F)[C@H](CC)CN1c1cc(=O)n(C)c2cn(CC#N)nc12 (stereo partly drawn) [Compound A73, 2-(7-((2S,5R)-2,5-diethyl-4-(1-(2-fluoro-4-(trifluoromethyl)phenyl)ethyl)piperazin-1-yl)-4-methyl-5-oxo-4,5-dihydro-2H-pyrazolo[4,3-b]pyridin-2-yl)acetonitrile]
6.10 | < 5.00 | CC[C@H]1CN(C(C)c2ccc(F)cc2C(C)O)[C@H](CC)CN1c1cc(=O)n(C)c2cn(CC#N)nc12 (stereo partly shown) [Compound A188]
6.21 | 5.09 | C[C@@H]1CN(c2cc(=O)n(C)c3cn(CC#N)nc23)[C@@H](C)CN1Cc1ccc2nccnc2c1 [Compound A44]

SMILES | pIC50 (DGKζ) | pIC50 (DGKα)
C[C@@H]1CN(c2cc(=O)n(C)c3cn(CC#N)nc23)[C@@H](C)CN1[C@H](C)c1ccc2nccnc2c1 [Compound A2b, 2-(7-((2S,5R)-2,5-dimethyl-4-((R)-1-(quinoxalin-6-yl)ethyl)piperazin-1-yl)-4-methyl-5-oxo-4,5-dihydro-2H-pyrazolo[4,3-b]pyridin-2-yl)acetonitrile] | 4.89 | 4.72
C[C@@H]1CN(c2cc(=O)n(C)c3c(C(F)(F)F)n(CC#N)nc23)[C@@H](C)CN1[C@@H](C)c1ccc2nccnc2c1 (single isomer, unassigned) [Compound A243, 2-(7-((2S,5R)-2,5-dimethyl-4-((S)-1-(quinoxalin-6-yl)ethyl)piperazin-1-yl)-4-methyl-5-oxo-3-(trifluoromethyl)-4,5-dihydro-2H-pyrazolo[4,3-b]pyridin-2-yl)acetonitrile or 2-(7-((2S,5R)-2,5-dimethyl-4-((R)-1-(quinoxalin-6-yl)ethyl)piperazin-1-yl)-4-methyl-5-oxo-3-(trifluoromethyl)-4,5-dihydro-2H-pyrazolo[4,3-b]pyridin-2-yl)acetonitrile] | 5.87 | < 5.00
